Measured values published in ChEMBL document CHEMBL4806964, “Heterocyclic compound” (2019).

Experiments:
[1] = target: T1, CDK12/Cyclin K (Homo sapiens) (UniProt O75909+Q9NYV4); experiment: Inhibition of human CDK12/CycK in human A2780 cells assessed as intracellular phosphorylated CTD Ser2 art 1 uM by In-Cell Western method relative to control; assay type: cell-based
[2] = target: T1, CDK12/Cyclin K (Homo sapiens); experiment: Inhibition of BODIPY-FL-labeled AT-7519 binding to human His-tagged CDK12/CycK assessed as BODIPY-FL-labeled AT-7519 binding by measuring fluorescence intensity at 1 uM incubated for 120 mins in presence of 3 uM BODIPY-FL-labeled AT-7519 by TR-FRET assay relative to control; assay type: protein-complex assay
[3] = target: T1, CDK12/Cyclin K (Homo sapiens); experiment: Inhibition of BODIPY-FL-labeled AT-7519 binding to human His-tagged CDK12/CycK assessed as BODIPY-FL-labeled AT-7519 binding by measuring fluorescence intensity at 1 uM incubated for 120 mins in presence of 30 uM BODIPY-FL-labeled AT-7519 by TR-FRET assay relative to control; assay type: protein-complex assay
[4] = test system: A2780; experiment: Antiproliferative activity against human A2780 cells at 1 uM by CellTiter-Glo reagent assay relative to control; assay type: functional
[5] = target: T1, CDK12/Cyclin K (Homo sapiens); experiment: Inhibition of human His-tagged CDK12/CycK using ULight-labeled eIF4E-binding protein 1 substrate at 1 uM incubated for 60 mins by fluorescence based assay relative to control; assay type: protein-complex assay

T1 sequence (O75909 whole entry, looked up): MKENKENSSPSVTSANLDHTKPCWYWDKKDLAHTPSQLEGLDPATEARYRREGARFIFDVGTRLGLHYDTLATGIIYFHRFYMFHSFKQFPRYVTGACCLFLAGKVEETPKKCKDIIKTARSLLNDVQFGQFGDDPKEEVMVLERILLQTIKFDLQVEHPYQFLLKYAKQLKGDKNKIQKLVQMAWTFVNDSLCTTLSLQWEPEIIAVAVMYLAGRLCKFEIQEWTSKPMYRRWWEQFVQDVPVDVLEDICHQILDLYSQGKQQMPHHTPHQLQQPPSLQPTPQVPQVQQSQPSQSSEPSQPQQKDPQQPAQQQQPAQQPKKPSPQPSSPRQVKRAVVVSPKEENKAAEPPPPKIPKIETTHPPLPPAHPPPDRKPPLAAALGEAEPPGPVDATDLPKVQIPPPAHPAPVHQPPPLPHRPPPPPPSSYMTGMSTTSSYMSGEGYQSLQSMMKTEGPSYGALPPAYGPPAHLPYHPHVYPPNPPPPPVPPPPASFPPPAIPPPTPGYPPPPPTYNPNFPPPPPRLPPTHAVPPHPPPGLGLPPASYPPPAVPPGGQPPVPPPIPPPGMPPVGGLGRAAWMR
T1 sequence (Q9NYV4 whole entry, looked up): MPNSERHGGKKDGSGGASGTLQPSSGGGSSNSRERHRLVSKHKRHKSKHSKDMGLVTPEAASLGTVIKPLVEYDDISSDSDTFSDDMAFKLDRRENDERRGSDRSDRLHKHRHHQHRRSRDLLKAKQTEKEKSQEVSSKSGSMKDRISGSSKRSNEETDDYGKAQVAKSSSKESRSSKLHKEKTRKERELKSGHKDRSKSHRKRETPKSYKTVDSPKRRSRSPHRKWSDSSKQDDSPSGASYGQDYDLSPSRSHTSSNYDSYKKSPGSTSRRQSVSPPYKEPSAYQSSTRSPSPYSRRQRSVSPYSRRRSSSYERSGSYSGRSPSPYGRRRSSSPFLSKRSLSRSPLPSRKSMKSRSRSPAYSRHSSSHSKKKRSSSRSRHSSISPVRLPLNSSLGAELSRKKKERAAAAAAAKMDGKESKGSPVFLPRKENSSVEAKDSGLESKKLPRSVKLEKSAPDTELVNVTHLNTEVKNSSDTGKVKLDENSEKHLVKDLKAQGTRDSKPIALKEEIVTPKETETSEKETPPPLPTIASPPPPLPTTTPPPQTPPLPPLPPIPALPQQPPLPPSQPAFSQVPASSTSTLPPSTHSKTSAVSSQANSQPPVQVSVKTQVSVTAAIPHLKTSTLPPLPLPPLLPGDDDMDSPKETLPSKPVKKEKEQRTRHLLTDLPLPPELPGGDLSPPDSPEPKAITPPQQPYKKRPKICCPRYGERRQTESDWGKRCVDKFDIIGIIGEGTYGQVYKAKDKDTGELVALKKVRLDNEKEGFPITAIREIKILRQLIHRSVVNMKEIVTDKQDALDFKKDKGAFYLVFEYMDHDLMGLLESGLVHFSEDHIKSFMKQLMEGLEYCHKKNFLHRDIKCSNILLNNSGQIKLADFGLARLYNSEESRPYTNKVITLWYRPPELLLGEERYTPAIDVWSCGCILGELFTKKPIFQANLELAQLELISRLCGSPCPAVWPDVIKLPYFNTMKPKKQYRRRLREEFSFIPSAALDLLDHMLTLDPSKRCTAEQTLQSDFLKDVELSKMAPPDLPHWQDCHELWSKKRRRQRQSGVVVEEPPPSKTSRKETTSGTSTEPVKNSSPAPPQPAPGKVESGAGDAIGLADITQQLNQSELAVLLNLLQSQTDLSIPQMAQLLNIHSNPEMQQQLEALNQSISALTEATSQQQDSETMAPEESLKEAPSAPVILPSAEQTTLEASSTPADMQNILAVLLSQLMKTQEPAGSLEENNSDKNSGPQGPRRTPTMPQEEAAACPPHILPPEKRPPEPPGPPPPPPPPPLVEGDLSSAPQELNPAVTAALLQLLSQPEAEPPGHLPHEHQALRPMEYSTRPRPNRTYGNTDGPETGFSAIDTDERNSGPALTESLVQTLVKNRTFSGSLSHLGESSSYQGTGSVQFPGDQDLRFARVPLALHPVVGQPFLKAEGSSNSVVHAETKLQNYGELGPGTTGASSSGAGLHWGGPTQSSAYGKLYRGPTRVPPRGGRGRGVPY

**Q.** `COc1ncc(-c2cnc(N(C(=O)NCc3ccccc3)[C@H]3CC[C@H](Nc4ncc(C#N)c(N5CCCC(O)CC5)n4)CC3)nc2)cn1` (some centres undefined) was tested. Which inhibition [1] did it give?
**A.** Its inhibition is 48%.

**Q.** `COc1ncc(-c2ccc(N(C(=O)COc3ccccc3)[C@H]3CC[C@H](Nc4ncc(C#N)c(OC5COC5)n4)CC3)nc2)cn1` was tested. Which inhibition [2] did it give?
**A.** The inhibition was 98%.

**Q.** Which inhibition [3] does the source give for `COCC(=O)N(c1cnc(-c2cnn(C)c2)cn1)[C@H]1CC[C@H](Nc2ncc(C(F)(F)F)c(-c3cncc(S(N)(=O)=O)c3)n2)CC1` here?
**A.** Its inhibition is 95%.

**Q.** For `COc1ncc(-c2ccc(N(C(=O)COc3ccccc3)[C@H]3CC[C@H](Nc4ncc(C#N)c(N5CCCC(O)CC5)n4)CC3)nc2)cn1` (some centres undefined), which inhibition [2] is on record?
**A.** Its inhibition is 104%.

**Q.** For `COCCNC(=O)N(c1cnc(-c2cnc(OC)nc2)cn1)[C@H]1CC[C@H](Nc2ncc(C(F)(F)F)c(-c3ccn(C(F)F)n3)n2)CC1`, which inhibition [3] is on record?
**A.** Its inhibition is 90%.

**Q.** How did the inhibition [3] turn out when `COCCOC(=O)N(c1cnc(-c2cnc(OC)nc2)cn1)[C@H]1CC[C@H](Nc2ncc(C(F)(F)F)c(-c3cncc(S(N)(=O)=O)c3)n2)CC1` was run?
**A.** The inhibition was 91%.

**Q.** For `COc1ncc(-c2cnc(N(C(=O)NCc3ccccc3)[C@H]3CC[C@H](Nc4ncc(C#N)c(N5CC(C)(O)C5)n4)CC3)nc2)cn1`, which inhibition [2] is on record?
**A.** Its inhibition is 95%.

**Q.** What about the inhibition [1] of the same molecule?
**A.** The inhibition was 54%.

**Q.** And the inhibition at 1 µM [4]?
**A.** Its inhibition at 1 µM is 94%.

**Q.** And the inhibition [5]?
**A.** The inhibition was 105%.

**Q.** What does the source list for `COc1ncc(-c2cnc(N(C(=O)NCc3ccccn3)[C@H]3CC[C@H](Nc4ncc(C(F)(F)F)c(OC5COC5)n4)CC3)nc2)cn1`?
**A.** inhibition [2]: 103%; inhibition at 1 µM [4]: 98%; inhibition [5]: 99%

**Q.** For `COc1ncc(-c2cnc(N(C(=O)NCc3ccccc3)[C@H]3CC[C@H](Nc4ncc(C(F)(F)F)c(N5CC(C)(O)C5)n4)CC3)cn2)cn1`, which inhibition [2] is on record?
**A.** The inhibition was 103%.

**Q.** `COc1ncc(-c2cnc(N(C(=O)OCCN3CCOCC3)[C@H]3CC[C@H](Nc4ncc(C(F)(F)F)c(-c5cncc(S(N)(=O)=O)c5)n4)CC3)cn2)cn1` was tested. Which inhibition [3] did it give?
**A.** Its inhibition is 99%.

**Q.** For `COc1ncc(-c2cnc(N(C(=O)COc3ccccc3)[C@H]3CC[C@H](Nc4ncc(C(F)(F)F)c(N5CC(C)(O)C5)n4)CC3)cn2)cn1`, which inhibition [2] is on record?
**A.** The inhibition was 100%.

**Q.** How did the inhibition [2] turn out when `Cn1cc(-c2ccc(N(C(=O)NCc3ccccc3)[C@H]3CC[C@H](Nc4ncc(C#N)c(-c5[nH]ncc5O)n4)CC3)nc2)cn1` was run?
**A.** The inhibition was 96%.

**Q.** `COc1ncc(-c2cnc(N(C(=O)NCc3ccccc3)[C@H]3CC[C@H](Nc4ncc(C(F)(F)F)c(NC5COC5)n4)CC3)nc2)cn1` was tested. Which inhibition [2] did it give?
**A.** Its inhibition is 96%.

**Q.** For `CCCC(=O)N(c1cnc(-c2cnn(C)c2)cn1)[C@H]1CC[C@H](Nc2ncc(C(F)(F)F)c(-c3cncc(S(N)(=O)=O)c3)n2)CC1`, which inhibition [3] is on record?
**A.** Its inhibition is 99%.
